Consider 7 molecules from PubChem BioAssay (NCI).

Where “and” joins values, the source holds several entries; their conditions need not be identical. Equal entries are not always repeated.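 These data come from cells grown in 96-well plates and exposed to compound for 48 hours at five concentrations. Here, GI50 denotes the concentration required for 50% inhibition of growth. Definition used: TGI = concentration required for complete inhibition of growth.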 Some results are limits rather than exact numbers.

Among the test systems are A498 renal; DU-145 prostate; HCT-15 colon; HOP-92 NSCLC; MALME-3M melanoma; OVCAR-8 ovarian; RXF 393 renal; SN12C renal; SNB-19 CNS; TK-10 renal.
Common to all, as to test: NCI anticancer screen, dose series, 48 h

As to `O=P(O)(O)OC1C(OP(=O)(O)O)C(OP(=O)(O)O)C(OP(=O)(O)O)C(OP(=O)(O)O)C1OP(=O)(O)O` (stereo not drawn), the GI50 in the experiment with A498 renal is > 500 µM and 1190 µM; in the experiment with DU-145 prostate, greater than 2000 µM; in the experiment with HCT-15 colon it was greater than 2000 µM; with HOP-92 NSCLC, greater than 100 µM; in the experiment with MALME-3M melanoma, greater than 2000 µM; in the experiment on OVCAR-8 ovarian, greater than 2000 µM. Further, the GI50 with RXF 393 renal is > 500 µM and 1720 µM; in the experiment with SN12C renal it was greater than 2000 µM; in the experiment with SNB-19 CNS it was greater than 2000 µM; in the experiment on TK-10 renal, greater than 1360 µM. For the same molecule, the TGI with A498 renal was greater than 2000 µM; with DU-145 prostate it was greater than 2000 µM; in the experiment on HCT-15 colon, greater than 2000 µM; in the experiment on HOP-92 NSCLC, greater than 1880 µM; in the experiment with MALME-3M melanoma it was greater than 2000 µM; in the experiment on OVCAR-8 ovarian, greater than 2000 µM. The TGI in the experiment on RXF 393 renal, in the experiment with SN12C renal, in the experiment with SNB-19 CNS and in the experiment with TK-10 renal was greater than 2000 µM in each case.
As to `COc1cc(-c2cc(-c3ccc(N(C)C)cc3)nc(N3CCC(O)CC3)c2C#N)cc(OC)c1OC`, the GI50 in the experiment on A498 renal is 1.19 µM; with DU-145 prostate, 0.853 µM; in the experiment on HCT-15 colon, 0.306 µM; in the experiment on HOP-92 NSCLC, 0.182 µM; in the experiment with MALME-3M melanoma it was 0.475 µM; with OVCAR-8 ovarian, 0.485 µM. The GI50 in the experiment with RXF 393 renal was 0.177 µM; in the experiment on SN12C renal it was 0.689 µM; with SNB-19 CNS, 2.44 µM; in the experiment with TK-10 renal it was 1.81 µM. Moreover, the TGI in the experiment on A498 renal was 19.1 µM; in the experiment with DU-145 prostate, greater than 79.6 µM; in the experiment with HCT-15 colon it was 1.86 µM; with HOP-92 NSCLC, 0.788 µM; in the experiment on MALME-3M melanoma, 1.54 µM; with OVCAR-8 ovarian, greater than 45.7 µM. The TGI with RXF 393 renal was 3.27 µM; in the experiment on SN12C renal, 6.44 µM; with SNB-19 CNS, 23.8 µM; in the experiment with TK-10 renal it was 15.7 µM.
Regarding `COc1cc[c]([Hg][Cl])cc1`, the GI50 with A498 renal was 17.6 µM; with DU-145 prostate it was 5.23 µM; in the experiment on HCT-15 colon it was 1.08 µM; in the experiment on HOP-92 NSCLC it was 2.26 µM; in the experiment on MALME-3M melanoma, 1.88 µM; in the experiment on OVCAR-8 ovarian it was 6.11 µM. The GI50 in the experiment with RXF 393 renal was 1.76 µM; with SN12C renal, 2.51 µM; with SNB-19 CNS it was 4.59 µM; with TK-10 renal, 17.5 µM. Besides, the TGI in the experiment with A498 renal was 31.5 µM; in the experiment on DU-145 prostate, 18.2 µM; in the experiment on HCT-15 colon, 2.36 µM; in the experiment on HOP-92 NSCLC, 4.01 µM; in the experiment with MALME-3M melanoma it was 3.69 µM; in the experiment on OVCAR-8 ovarian, greater than 100 µM. Also, the TGI was 3.14 µM in the experiment on RXF 393 renal, 6.17 µM with SN12C renal, 16.6 µM in the experiment on SNB-19 CNS and 31.4 µM with TK-10 renal.
On to `CC(=O)OCC1OC(n2cc(F)c(=O)[nH]c2=O)C(OC(C)=O)C1OC(C)=O` (stereo not drawn), for which the TGI in the experiment on A498 renal is greater than 100 µM; in the experiment with DU-145 prostate, greater than 100 µM; in the experiment with HCT-15 colon, greater than 100 µM; with HOP-92 NSCLC it was greater than 55.8 µM; in the experiment with MALME-3M melanoma, greater than 100 µM; with OVCAR-8 ovarian, greater than 100 µM. In addition, the TGI was 99.2 µM in the experiment on RXF 393 renal, greater than 100 µM with SN12C renal, greater than 100 µM in the experiment with SNB-19 CNS and greater than 100 µM with TK-10 renal.
In the case of `O=C(Cn1ccnc1[N+](=O)[O-])NCCO`, the TGI in the experiment with A498 renal, in the experiment with DU-145 prostate, with HCT-15 colon, with HOP-92 NSCLC, in the experiment with MALME-3M melanoma and in the experiment with OVCAR-8 ovarian was greater than 100 µM each time. In addition, the TGI with RXF 393 renal, with SN12C renal, in the experiment on SNB-19 CNS and in the experiment with TK-10 renal was greater than 100 µM throughout.
With `CCc1nc(N)nc(N)c1-c1ccc(Cl)cc1`, the GI50 in the experiment with A498 renal is 24.1 µM; in the experiment on DU-145 prostate, 13.2 µM; in the experiment on HCT-15 colon it was 4.74 µM; with HOP-92 NSCLC, 17.4 µM; in the experiment with MALME-3M melanoma, 59.3 µM; in the experiment with RXF 393 renal, 22.6 µM. For the same molecule, the GI50 in the experiment on SN12C renal is 5.04 µM; in the experiment with SNB-19 CNS it was 7.75 µM; in the experiment on TK-10 renal, 88.3 µM. In addition, the TGI was > 100 µM and 42.4 µM in the experiment on A498 renal; greater than 100 µM in the experiment on DU-145 prostate; greater than 100 µM in the experiment on HCT-15 colon; greater than 100 µM with HOP-92 NSCLC; > 100 µM and 99.6 µM in the experiment with MALME-3M melanoma; greater than 100 µM in the experiment on OVCAR-8 ovarian. Besides, the TGI in the experiment on RXF 393 renal, with SN12C renal, in the experiment with SNB-19 CNS and with TK-10 renal was greater than 100 µM in each case.
As to `C=C1C(=O)O[C@@H]2[C@@H]3O[C@@](C)(CC/C=C(\C)CCC[C@@H]2C)[C@H](O)C[C@@H]13`, the GI50 with A498 renal was 8.87 µM; in the experiment with HCT-15 colon, 1.64 µM; with HOP-92 NSCLC it was 1.7 µM; in the experiment on MALME-3M melanoma, 1.76 µM; in the experiment on OVCAR-8 ovarian, 1.76 µM; in the experiment on RXF 393 renal, 1.79 µM. Moreover, the GI50 in the experiment with SN12C renal was 2.61 µM; in the experiment on SNB-19 CNS, 14.6 µM; with TK-10 renal, 1.89 µM. In addition, the TGI in the experiment on A498 renal amounted to 21.3 µM; in the experiment with DU-145 prostate it was 19.4 µM; in the experiment with HCT-15 colon, 4.53 µM; in the experiment with HOP-92 NSCLC it was 4.58 µM; with MALME-3M melanoma it was 4.11 µM; in the experiment with OVCAR-8 ovarian, 5.85 µM. The TGI in the experiment with RXF 393 renal stood at 3.58 µM; in the experiment with SN12C renal, 10.1 µM; in the experiment with SNB-19 CNS, 28.6 µM; in the experiment with TK-10 renal, 3.46 µM.
